Source: patent US9096601B2 (CSPC Zhongqi Pharmaceutical Technology (Shijiazhuang) Co., …, priority 2010, dated 2015)

Assays:
[1] = tested on: non-small cell lung carcinoma cell strain PC-9 (EGFR delE746-A750 deletion mutation); test: In-vitro tumor cell proliferation inhibition, MTT; type: cell-based, human; conditions: 72 hours
Procedure: (§1) The object of this assay was to test the inventive compounds for the inhibitory activity of in-vitro tumor cell proliferation. The MTT (tetreamethyl-azo-zole-salt) colorimetric method was used in this assay.
(§2) All of the above-mentioned non-small cell lung carcinoma cell strains and the breast carcinoma cell strain BT 474 were cultured with a RPMI-1640 complete culture medium containing 10% fetal bovine serum, 100 U/ml penicillin and 100 μg/ml streptomycin under 5% CO2 and at 37° C. The other cell strains were cultured with a DMEM complete culture medium containing 10% fetal bovine serum (having a MV4-11 cell content of 20%), 100 U/ml penicillin and 100 μg/ml streptomycin under 5% CO2 and 37° C.
(§3) A cell suspension having a cell concentration of 1-2×10^4 cells/ml was treated with a complete cell culture solution to adjust the cell concentration, wherein the cell concentrations for HCC827 and MV4-11 were adjusted to 6×10^4 cells/ml and 1×10^5 cells/ml respectively. The cell suspension was inoculated in a 96-well plate with 200 μl cell suspension/well and cultured overnight. Next day, the supernatant was drawn off and discarded. Then, the cells were treated with the tested compounds in a gradient concentration respectively. In the meanwhile, a negative control group free of the drug substance and an isovolumetric solvent control group (having a DMSO concentration of 1%) were used. The triplicate wells were used for each of dose groups. The culturing was conducted at 37° C. under 5% CO2. After 72 hours, […] having a concentration of 5 mg/ml was added to each of wells. The culturing was further conducted for 2-4 hours. The supernatant was discarded. Then […] was added to each of wells. The contents in the well were mixed homogenously by oscillation for 15 minutes. The absorbance (A) value was measured with a microplate reader at λ=570 nm (the A value is in the direct proportion to the number of living cells) and averaged. The relative cell proliferation inhibitory rate is (A570 control-group−A570 dose-group)/A570 control-group×100%. The assay was repeated for at least three times. The data was expressed as number average. The statistical data were analyzed using t-test. P<0.05 was considered significant. The cell proliferation inhibition of the following compounds was expressed as IC50 or inhibitory rate.

[2] = tested on: non-small cell lung carcinoma cell strain HCC827; test: In-vitro tumor cell proliferation inhibition, MTT; type: cell-based, human; conditions: 72 hours
Procedure: as §1, §2, §3

[3] = tested on: non-small cell lung carcinoma cell strain H1975 (EGFR L858R/T790M mutation); test: In-vitro tumor cell proliferation inhibition, MTT; type: cell-based, human; conditions: 72 hours
Procedure: as §1, §2, §3

[4] = tested on: non-small cell lung carcinoma cell strain H292 (EGFR WT); test: In-vitro tumor cell proliferation inhibition, MTT; type: cell-based, human; conditions: 72 hours
Procedure: as §1, §2, §3

c-SRC = c-SRC (Homo sapiens (Human), UniProt P12931); test: Kinase inhibitory activity, isotopic labeling (γ-33P-ATP); type: biochemical; conditions: compound at 10 μM
Procedure: (§4) The object of this assay was to test the inventive compounds for the kinase inhibitory activity in vitro. In this assay, an isotopic labeling method was used to label the γ phosphate group on ATP. EGFR (including wild type, L858R mutant type and L858R/T790M double mutant type), VEGFR2, ALK, BTK, c-KIT, c-SRC, MET, PDGFRα and FLT3 kinases were tested in vitro for the activity inhibition. Staurosporine was used as a reference molecule (or referred to as a positive control). […] The IC50 value can be obtained by the calculation of the inhibitory rates at a series of different concentrations of the tested compounds.
(§5) To a reaction tube were successively added the buffer solution (8 mM MOPS, pH 7.0, 0.2 mM EDTA, 10 mM MnCl2), the kinase to be tested (5-10 mU) (EGFR/ALK/BTK/c-KIT/c-SRC/MET/PDGFRα/VEGFR2), the substrate for the kinase to be tested (a reference material), 10 mM of the solution of magnesium acetate and γ-^33 P-ATP, and different concentrations of the tested compounds. […] The reaction was terminated with […] of the 3% phosphate buffer solution. 10 μL of the reaction liquid was titrated on the Filtermat A membrane. The membrane was washed with 75 mM of the phosphate solution thrice (5 minutes each time), and then with methanol once, and finally dried. The membrane was subjected to a scintillation counting. The value of the scintillation counting reflected the phosphorylation level of the substrate and therefore could characterize the inhibition of the kinase activity.

ALK = ALK (Homo sapiens (Human), UniProt Q9UM73); test: as above; type: biochemical; conditions: compound at 10 μM
Procedure: as §4, §5

PDGFRα = PDGFRα (Homo sapiens (Human), UniProt P16234); test: as above; type: biochemical; conditions: compound at 10 μM
Procedure: as §4, §5

VEGFR2 = VEGFR2 (Homo sapiens (Human), UniProt P35968); test: as above; type: biochemical; conditions: ATP 90 μM (Km)
Procedure: as §4, §5

FLT3 = FLT3 (Homo sapiens (Human), UniProt P36888); test: as above; type: biochemical; conditions: compound at 10 μM
Procedure: as §4, §5

BTK = BTK (Homo sapiens (Human), UniProt Q06187); test: as above; type: biochemical; conditions: compound at 10 μM
Procedure: as §4, §5

MET = MET (Homo sapiens (Human), UniProt P08581); test: as above; type: biochemical; conditions: compound at 10 μM
Procedure: as §4, §5

c-KIT = c-KIT (Homo sapiens (Human), UniProt P10721); test: as above; type: biochemical; conditions: compound at 10 μM
Procedure: as §4, §5

[5] = tested on: breast carcinoma cell strain BT474; test: In-vitro tumor cell proliferation inhibition, MTT; type: cell-based, human; conditions: 72 hours
Excerpt: as §1
(§6) Human non-small cell lung carcinoma cell strains HCC827, PC-9, H1975 (EGFR L858R/T790M mutation) and H292 (EGFR WT), and other tumor type cell strains, including human acute myelogenous leukemia cell strain MV4-11, human chronic granulocytic leukemia cell strain K562, human squamous cell carcinoma cell strain A431, human breast carcinoma cell strains MDA-MB-468 and BT 474, human colon cancer cell strains SW480, HCT116 and SW620, human liver cancer cell strain Hep G2, human gastric cancer cell strain MK-45, and human malignant melanoma cell strain A375 used in this assay were all purchased from ATCC company, USA and kept in the laboratory. All of the above-mentioned non-small cell lung carcinoma cell strains and the breast carcinoma cell strain BT 474 were cultured with a RPMI-1640 complete culture medium containing 10% fetal bovine serum, 100 U/ml penicillin and 100 μg/ml streptomycin under 5% CO2 and at 37° C. The other cell strains were cultured with a DMEM complete culture medium containing 10% fetal bovine serum (having a MV4-11 cell content of 20%), 100 U/ml penicillin and 100 μg/ml streptomycin under 5% CO2 and 37° C.
as §3

[6] = tested on: chronic granulocytic leukemia cell strain K562; test: In-vitro tumor cell proliferation inhibition, MTT; type: cell-based, human; conditions: 72 hours
Excerpt: as §1, §6, §3

[7] = tested on: colon cancer cell strain SW480; test: In-vitro tumor cell proliferation inhibition, MTT; type: cell-based, human; conditions: 72 hours
Excerpt: as §1, §6, §3

[8] = tested on: malignant melanoma cell strain A375; test: In-vitro tumor cell proliferation inhibition, MTT; type: cell-based, human; conditions: 72 hours
Excerpt: as §1, §6, §3

[9] = tested on: colon cancer cell strain HCT116; test: In-vitro tumor cell proliferation inhibition, MTT; type: cell-based, human; conditions: 72 hours
Excerpt: as §1, §6, §3

[10] = tested on: squamous cell carcinoma cell strain A431; test: In-vitro tumor cell proliferation inhibition, MTT; type: cell-based, human; conditions: 72 hours
Excerpt: as §1, §6, §3

[11] = tested on: breast carcinoma cell strain MDA-MB-468; test: In-vitro tumor cell proliferation inhibition, MTT; type: cell-based, human; conditions: 72 hours
Excerpt: as §1, §6, §3

[12] = tested on: gastric cancer cell strain MK-45; test: In-vitro tumor cell proliferation inhibition, MTT; type: cell-based, human; conditions: 72 hours, read-out: MK45 (IC50)
Excerpt: as §1, §6, §3

[13] = tested on: liver cancer cell strain Hep G2; test: In-vitro tumor cell proliferation inhibition, MTT; type: cell-based, human; conditions: 72 hours, read-out: HEPG2 (IC50)
Excerpt: as §1, §6, §3

[14] = tested on: acute myelogenous leukemia cell strain MV4-11; test: In-vitro tumor cell proliferation inhibition, MTT; type: cell-based, human; conditions: 72 hours
Excerpt: as §1, §6, §3

[15] = tested on: colon cancer cell strain SW620; test: In-vitro tumor cell proliferation inhibition, MTT; type: cell-based, human; conditions: 72 hours
Excerpt: as §1, §6, §3

Sequence of ALK (Q9UM73 19-1620): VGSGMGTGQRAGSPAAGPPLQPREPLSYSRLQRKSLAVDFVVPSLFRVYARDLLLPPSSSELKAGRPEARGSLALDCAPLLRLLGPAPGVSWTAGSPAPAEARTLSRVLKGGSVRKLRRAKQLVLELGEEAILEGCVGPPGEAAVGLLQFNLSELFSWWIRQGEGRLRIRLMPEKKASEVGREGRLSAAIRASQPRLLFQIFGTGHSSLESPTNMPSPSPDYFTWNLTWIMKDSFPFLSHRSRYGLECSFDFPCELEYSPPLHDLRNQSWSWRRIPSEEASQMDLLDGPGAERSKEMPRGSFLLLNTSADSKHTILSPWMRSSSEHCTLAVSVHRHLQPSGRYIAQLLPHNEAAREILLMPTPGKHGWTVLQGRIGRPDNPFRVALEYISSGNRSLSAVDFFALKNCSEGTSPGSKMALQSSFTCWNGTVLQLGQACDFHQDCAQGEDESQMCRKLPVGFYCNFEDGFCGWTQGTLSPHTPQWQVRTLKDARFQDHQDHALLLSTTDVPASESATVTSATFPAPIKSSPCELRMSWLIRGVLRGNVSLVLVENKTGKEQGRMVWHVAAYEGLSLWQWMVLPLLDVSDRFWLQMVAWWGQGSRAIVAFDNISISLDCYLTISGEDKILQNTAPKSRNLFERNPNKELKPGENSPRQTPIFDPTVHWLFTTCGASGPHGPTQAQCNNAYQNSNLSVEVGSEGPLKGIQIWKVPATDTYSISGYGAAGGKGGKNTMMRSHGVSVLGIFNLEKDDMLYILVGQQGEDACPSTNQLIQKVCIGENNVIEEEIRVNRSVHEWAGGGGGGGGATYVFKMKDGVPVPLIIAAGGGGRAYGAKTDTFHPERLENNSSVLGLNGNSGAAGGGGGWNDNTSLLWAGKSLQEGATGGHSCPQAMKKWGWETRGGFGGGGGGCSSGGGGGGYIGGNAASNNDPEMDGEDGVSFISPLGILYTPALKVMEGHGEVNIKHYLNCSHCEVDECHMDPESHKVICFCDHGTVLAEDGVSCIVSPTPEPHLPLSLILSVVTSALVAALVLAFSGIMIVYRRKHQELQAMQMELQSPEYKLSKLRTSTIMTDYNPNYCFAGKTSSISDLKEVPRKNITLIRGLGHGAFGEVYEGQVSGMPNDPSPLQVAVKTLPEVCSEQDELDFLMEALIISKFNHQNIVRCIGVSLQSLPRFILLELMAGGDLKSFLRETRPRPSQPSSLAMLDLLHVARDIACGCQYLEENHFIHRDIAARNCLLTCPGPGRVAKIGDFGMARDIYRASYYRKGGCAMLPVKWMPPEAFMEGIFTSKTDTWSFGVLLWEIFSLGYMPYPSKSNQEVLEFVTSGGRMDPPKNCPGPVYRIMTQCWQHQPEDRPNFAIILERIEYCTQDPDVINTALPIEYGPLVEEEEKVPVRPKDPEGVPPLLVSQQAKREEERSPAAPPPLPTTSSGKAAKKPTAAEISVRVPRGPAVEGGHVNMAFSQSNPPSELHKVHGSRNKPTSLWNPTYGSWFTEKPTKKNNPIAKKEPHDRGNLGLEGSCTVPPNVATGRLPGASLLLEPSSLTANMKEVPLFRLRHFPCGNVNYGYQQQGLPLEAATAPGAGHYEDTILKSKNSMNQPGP
Sequence of c-SRC (P12931 whole entry, looked up): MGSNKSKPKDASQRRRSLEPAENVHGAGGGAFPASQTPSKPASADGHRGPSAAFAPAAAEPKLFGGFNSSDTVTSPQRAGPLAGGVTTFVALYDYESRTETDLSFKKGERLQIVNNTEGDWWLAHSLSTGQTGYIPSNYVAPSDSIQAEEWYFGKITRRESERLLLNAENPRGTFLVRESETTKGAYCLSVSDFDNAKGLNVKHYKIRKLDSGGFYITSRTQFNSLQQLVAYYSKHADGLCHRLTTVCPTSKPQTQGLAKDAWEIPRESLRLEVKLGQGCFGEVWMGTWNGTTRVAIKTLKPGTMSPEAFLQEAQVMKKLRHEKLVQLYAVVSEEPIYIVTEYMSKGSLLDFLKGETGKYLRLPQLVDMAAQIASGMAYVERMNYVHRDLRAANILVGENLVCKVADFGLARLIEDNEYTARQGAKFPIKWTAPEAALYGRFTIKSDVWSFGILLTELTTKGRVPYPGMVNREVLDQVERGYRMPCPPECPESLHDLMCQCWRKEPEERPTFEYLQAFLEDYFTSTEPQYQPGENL
Sequence of c-KIT (P10721 26-976): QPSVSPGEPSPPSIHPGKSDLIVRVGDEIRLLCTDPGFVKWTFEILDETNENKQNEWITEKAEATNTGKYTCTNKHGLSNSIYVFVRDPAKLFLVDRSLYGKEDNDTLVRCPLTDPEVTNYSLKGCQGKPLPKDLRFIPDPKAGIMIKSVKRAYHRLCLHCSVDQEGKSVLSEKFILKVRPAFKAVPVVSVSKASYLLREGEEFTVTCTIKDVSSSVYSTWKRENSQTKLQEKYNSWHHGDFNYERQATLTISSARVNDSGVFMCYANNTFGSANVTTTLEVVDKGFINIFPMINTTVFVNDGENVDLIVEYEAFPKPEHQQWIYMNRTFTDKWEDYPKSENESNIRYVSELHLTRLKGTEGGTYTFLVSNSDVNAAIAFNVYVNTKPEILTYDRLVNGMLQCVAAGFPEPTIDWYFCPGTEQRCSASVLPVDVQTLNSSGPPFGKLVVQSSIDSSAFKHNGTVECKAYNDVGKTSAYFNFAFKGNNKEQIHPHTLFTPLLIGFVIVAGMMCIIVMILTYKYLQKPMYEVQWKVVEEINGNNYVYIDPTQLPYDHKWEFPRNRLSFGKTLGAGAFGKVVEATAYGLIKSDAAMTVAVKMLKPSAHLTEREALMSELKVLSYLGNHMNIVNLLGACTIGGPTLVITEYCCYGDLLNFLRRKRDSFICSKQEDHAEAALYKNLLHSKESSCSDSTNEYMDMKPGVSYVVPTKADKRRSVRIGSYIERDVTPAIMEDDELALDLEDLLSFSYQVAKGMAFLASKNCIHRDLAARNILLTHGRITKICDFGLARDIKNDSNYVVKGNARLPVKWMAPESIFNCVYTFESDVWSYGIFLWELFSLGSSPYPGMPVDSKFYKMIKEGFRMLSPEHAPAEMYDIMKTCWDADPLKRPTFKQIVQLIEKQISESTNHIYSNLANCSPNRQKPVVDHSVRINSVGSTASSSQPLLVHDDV
Sequence of BTK (Q06187 whole entry): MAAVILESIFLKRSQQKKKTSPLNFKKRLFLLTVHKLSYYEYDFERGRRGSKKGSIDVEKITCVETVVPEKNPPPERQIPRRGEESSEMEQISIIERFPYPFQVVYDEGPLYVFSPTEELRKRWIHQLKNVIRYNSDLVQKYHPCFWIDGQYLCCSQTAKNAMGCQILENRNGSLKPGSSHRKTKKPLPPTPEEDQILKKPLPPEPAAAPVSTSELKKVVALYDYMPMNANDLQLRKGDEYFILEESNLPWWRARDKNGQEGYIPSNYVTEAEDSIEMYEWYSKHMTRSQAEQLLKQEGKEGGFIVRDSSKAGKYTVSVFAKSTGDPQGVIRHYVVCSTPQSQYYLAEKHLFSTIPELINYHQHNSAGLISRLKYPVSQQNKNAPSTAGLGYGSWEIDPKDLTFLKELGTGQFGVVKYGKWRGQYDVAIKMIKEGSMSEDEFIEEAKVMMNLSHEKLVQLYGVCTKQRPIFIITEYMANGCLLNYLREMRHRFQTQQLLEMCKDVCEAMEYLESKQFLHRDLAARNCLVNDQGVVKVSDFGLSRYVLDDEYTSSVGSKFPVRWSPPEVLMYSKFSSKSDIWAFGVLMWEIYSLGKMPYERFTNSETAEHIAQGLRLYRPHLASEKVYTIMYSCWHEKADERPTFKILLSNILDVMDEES
Sequence of MET (P08581 25-1390): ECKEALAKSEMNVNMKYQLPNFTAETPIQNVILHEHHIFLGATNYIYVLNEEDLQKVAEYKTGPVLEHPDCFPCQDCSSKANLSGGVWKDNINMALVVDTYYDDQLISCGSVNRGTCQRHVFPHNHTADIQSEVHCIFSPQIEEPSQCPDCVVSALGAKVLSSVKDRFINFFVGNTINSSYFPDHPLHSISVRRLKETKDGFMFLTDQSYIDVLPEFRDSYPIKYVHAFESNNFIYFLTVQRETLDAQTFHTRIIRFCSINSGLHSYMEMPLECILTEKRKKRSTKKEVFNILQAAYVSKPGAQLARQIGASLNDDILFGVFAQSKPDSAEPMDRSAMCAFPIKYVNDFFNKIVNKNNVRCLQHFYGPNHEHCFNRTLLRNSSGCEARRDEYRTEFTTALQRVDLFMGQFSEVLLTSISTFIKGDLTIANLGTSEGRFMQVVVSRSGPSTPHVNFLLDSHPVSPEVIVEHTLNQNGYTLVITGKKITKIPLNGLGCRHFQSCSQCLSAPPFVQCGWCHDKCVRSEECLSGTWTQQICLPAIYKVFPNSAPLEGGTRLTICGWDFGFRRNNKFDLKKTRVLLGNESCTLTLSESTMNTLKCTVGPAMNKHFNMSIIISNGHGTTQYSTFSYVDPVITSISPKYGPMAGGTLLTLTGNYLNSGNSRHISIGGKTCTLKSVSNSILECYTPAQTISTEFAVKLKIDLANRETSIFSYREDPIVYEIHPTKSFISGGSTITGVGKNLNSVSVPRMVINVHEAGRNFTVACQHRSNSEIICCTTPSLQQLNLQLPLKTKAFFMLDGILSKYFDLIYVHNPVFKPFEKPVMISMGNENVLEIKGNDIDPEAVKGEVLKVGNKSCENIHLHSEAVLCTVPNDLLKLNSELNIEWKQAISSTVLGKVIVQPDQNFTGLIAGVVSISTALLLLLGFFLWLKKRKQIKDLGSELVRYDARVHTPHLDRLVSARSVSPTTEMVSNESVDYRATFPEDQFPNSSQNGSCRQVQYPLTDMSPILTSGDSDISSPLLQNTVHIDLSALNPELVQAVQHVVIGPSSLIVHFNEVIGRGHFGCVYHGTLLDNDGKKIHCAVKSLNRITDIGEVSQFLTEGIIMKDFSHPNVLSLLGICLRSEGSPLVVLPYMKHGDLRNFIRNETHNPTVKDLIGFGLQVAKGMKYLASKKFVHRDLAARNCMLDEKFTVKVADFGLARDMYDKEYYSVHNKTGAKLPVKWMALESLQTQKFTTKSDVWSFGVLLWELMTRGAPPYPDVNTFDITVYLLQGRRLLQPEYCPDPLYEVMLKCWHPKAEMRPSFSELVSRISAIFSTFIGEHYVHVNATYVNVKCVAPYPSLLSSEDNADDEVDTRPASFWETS

Structure (SMILES)	IC50 [1] [nM]	IC50 [2] [nM]	IC50 [3] [nM]	IC50 [4] [nM]	The kinase activity inhibitory rate (%) by the tested compounds at 10 μM c-SRC (c-SRC) [%]	The kinase activity inhibitory rate (%) by the tested compounds at 10 μM ALK (ALK) [%]	The kinase activity inhibitory rate (%) by the tested compounds at 10 μM PDGFRα (PDGFRα) [%]	IC50 (VEGFR2) [nM]	The kinase activity inhibitory rate (%) by the tested compounds at 10 μM FLT3 (FLT3) [%]	The kinase activity inhibitory rate (%) by the tested compounds at 10 μM BTK (BTK) [%]	The kinase activity inhibitory rate (%) by the tested compounds at 10 μM MET (MET) [%]	The kinase activity inhibitory rate (%) by the tested compounds at 10 μM c-KIT (c-KIT) [%]	IC50 [5] [nM]	IC50 [6] [nM]	IC50 [7] [nM]	IC50 [8] [nM]	IC50 [9] [nM]	IC50 [10] [nM]	IC50 [11] [nM]	IC50 [12] [nM]	further results
CC(C)n1c(Nc2ccc(OCc3cccc(F)c3)c(Cl)c2)nc2cnc(Nc3ccc(N4CCN(C)CC4)cc3)nc21 [Compounds 8-19]	459	912	7320	316	97	90	34	> 1000	43	71	97	12	4990	2790	> 10000	1660	> 1000	9320	9980	1010	IC50 [13]: 5420 nM; IC50 [14]: 4780 nM; IC50 [15]: 1990 nM
CN1CCN(c2ccc(Nc3ncc4nc(Nc5ccccc5)n(C5CCCC5)c4n3)cc2)CC1 [Compounds 8-26]	0.2	1.1	369	10.7	99	71	95	7	86	99	86	94	107	120	3440	378	239	1050	299	> 1000	IC50 [13]: 6260 nM; IC50 [14]: 93 nM; IC50 [15]: 282 nM
